Experimental data reported in patent US9115122B2, “Non-ATP dependent inhibitors of extracellular signal-regulated kinase (ERK)” (UNIVERSITY OF MARYLAND, BALTIMORE, priority 2012, dated 2015).

Assays:
ERK2 wild type (WT) = ERK2 wild type (WT) (Rattus norvegicus (Rat), UniProt P63086); assay: Fluorescence quenching (FQ) binding affinity; conditions: 1 nM to 20 μM test compound
ERK2 L114A = ERK2 L114A (Rattus norvegicus (Rat), UniProt P63086, L114A); assay: Fluorescence quenching (FQ) binding affinity; conditions: read-out: KD L114A (Site 2)
ERK2 L235A = ERK2 L235A (Rattus norvegicus (Rat), UniProt P63086, L235A); assay: Fluorescence quenching (FQ) binding affinity; conditions: read-out: KD L235A (Site 5)
[1] = test system: MEK1-induced AP-1 promoter activity; assay: AP-1 promoter luciferase assay, HeLa cells expressing active MEK1 mutant; type: cell-based; conditions: Homo sapiens, 4 hours, read-out: IC50 inhibition of MEK1-induced AP-1 promoter activity
Procedure: FIG. 4. Compound SF-3-026 and analogs inhibit SRE and AP-1 transcription factor function. (a) HeLa cells were transfected with constructs containing SRE or AP-1 promoters driving luciferase expression and then stimulated with EGF in the presence or absence of SF-3-026 for 4 hours followed by measurements of luciferase activity. Cells treated with U0126 were used as a positive inhibitor control. (b and c) HeLa cells were prepared and treated as in (a) with the indicated concentrations of SF-3-026 or analogs for 4 hours followed by the measurement of luciferase activity regulated by the SRE (b) or AP-1 (c) promoters. Data in (b and c) were normalized to EGF-only treatment and represent the mean and standard deviation from three independent experiments. (d) Compound SF-3-026 and analogs inhibit MEK1-induced AP-1 transcription factor function. HeLa cells were transfected with the AP-1 promoter construct and a constitutively active MEK1 mutant in the presence (10 μM) or absence of the MEK1/2 inhibitor (U0126) or an ATP-competitive ERK inhibitor (ERKi) for 4 hours followed by measurements of luciferase activity. (e) Cells expressing the AP-1 promoter and an active MEK-1 construct were treated with the indicated concentrations of SF-3-026 or analogs for 4 hours followed by the measurement of luciferase activity. Data in (e) were normalized to active MEK1-only treatment and represent the mean and standard deviation from three independent experiments.
HeLa cells were seeded in 24-well plates (40,000 cells/well) and incubated 18 hours to achieve ˜60-70% confluent. Cells were transfected with activator protein-1 (pAP1(PMA)-TA-Luc; Clontech) or the serum response element (pGL4.33-SRE; Promega) luciferase reporter plasmids (250 ng/well) using Lipofectamine™ (Invitrogen). After 16 hours, cells were pre-treated with varying amounts of compounds as indicated for 20 minutes, followed by stimulation with EGF (25 ng/mL) for 4.5 hr. In some experiments, cells transfected with the pAP1(PMA)-TA-Luc promoter and a constitutively active MEK1 mutant cDNA were treated with varying amounts of compounds during the last 4 hours of incubation. The luciferase activity in the cell extracts was determined with a Dual Luciferase Assay System (Promega) according to the manufacturer's instructions. Luciferase activities were monitored with a Lumat LB 9507 luminometer (Berthold Technology) and data were normalized to the amount of protein in each sample. […]

Chain of ERK2 wild type (WT) (P63086 whole entry): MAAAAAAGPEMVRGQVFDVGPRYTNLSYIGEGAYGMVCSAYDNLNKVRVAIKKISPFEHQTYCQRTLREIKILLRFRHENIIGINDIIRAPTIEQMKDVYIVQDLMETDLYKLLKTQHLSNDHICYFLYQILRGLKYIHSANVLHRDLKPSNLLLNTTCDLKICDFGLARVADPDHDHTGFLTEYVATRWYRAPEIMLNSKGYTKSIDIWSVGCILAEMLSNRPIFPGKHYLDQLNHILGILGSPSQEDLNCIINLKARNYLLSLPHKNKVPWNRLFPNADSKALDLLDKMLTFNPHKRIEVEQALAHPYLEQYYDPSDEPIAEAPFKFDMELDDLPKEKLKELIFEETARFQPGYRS
Chain of ERK2 L235A (P63086 whole entry L235A): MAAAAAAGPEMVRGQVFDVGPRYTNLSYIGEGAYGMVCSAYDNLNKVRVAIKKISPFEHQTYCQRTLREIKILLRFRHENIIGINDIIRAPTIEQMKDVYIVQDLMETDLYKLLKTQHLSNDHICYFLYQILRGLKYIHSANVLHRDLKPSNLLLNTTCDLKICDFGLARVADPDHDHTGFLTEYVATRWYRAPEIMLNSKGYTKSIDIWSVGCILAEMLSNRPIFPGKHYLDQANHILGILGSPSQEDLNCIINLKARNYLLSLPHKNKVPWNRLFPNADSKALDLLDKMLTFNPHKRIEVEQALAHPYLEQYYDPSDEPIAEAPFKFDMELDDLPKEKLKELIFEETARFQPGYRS
Chain of ERK2 L114A (P63086 whole entry L114A): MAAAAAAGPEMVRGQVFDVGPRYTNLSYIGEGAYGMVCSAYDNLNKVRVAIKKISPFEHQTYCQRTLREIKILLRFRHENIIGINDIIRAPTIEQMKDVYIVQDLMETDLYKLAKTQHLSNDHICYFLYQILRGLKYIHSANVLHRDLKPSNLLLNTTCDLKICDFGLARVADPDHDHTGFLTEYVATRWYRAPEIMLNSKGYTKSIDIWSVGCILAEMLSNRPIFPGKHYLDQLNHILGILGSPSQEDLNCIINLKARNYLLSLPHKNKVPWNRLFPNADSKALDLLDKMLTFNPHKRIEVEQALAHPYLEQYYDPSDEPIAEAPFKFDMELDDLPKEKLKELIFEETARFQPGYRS

O=S1(=O)C=CC(OS(=O)(=O)c2ccccc2)C1 (stereo not shown) [SF-3-026]
Kd (ERK2 wild type (WT)): 130 ± 20 nM
Kd (ERK2 L114A): 27 ± 10 nM
Kd (ERK2 L235A): 90 ± 20 nM
IC50 [1]: ~40000 nM
